Data on one compound can be found in paper PMC11758220, “Identification of a Privileged Scaffold for Inhibition of Sterol Transport Proteins through the Synthesis and Ring Distortion of Diverse, Pseudo-Natural Products” (ACS Central Science, 2025).

For this assay, the system named is panel of STPs. The assay can be described thus: Screen against a broad panel of the STPs using FP and DSF assays. Type of assay: binding, human. The source says: Protein expression constructs
Human ASTER domains of Aster-A(359-547), -B(364-552) and -C(318-504) were subcloned into a pGEX-6p-2rbs vector, thus introducing the cloning artifact ‘GPLGS’.3 The pGEX-6P-1-GST-OSBP(377- […]
a gift from James H. Hurley (University of California).4 The pHIS_2His6_Thrombin_STARD4(2-205;C75S) plasmid was a gift from Young Jun Im (Chonnam National University).5 STARD5A was a gift from Nicola Burgess-Brown (Addgene plasmid #42392; http://n2t.net/addgene:42392; […]
Protein expression and purification […]
vectors including an N-terminal PreScission-cleavable glutathione S-transferase (GST)-tag were expressed in Escherichia coli (E. coli) OverExpress C41 in Terrific Broth (TB) medium for 16 h at 18 °C after the induction with 0.1 mM isopropyl β-D-1-thiogalactopyranoside (IPTG). Cells were harvested at 3500 × g for 15 minutes and lysed by sonication in buffer containing 50 mM HEPES pH 7.5, 300 mM NaCl, 10 %v/v glycerol, 5 mM dithiothreitol (DTT), 0.1 %v/v Triton X-100 and protease inhibitor mix HP plus (Serva). The lysate was purified by affinity chromatography on a GSTrap FF column (Cytiva) using an ÄKTA Start (Cytiva) in buffer containing 50 mM HEPES pH 7.5, 300 mM NaCl, 10 %v/v glycerol, 5 mM DTT and 0.01 %v/v Triton X-100. The GST-tag was cleaved overnight on the column at 4 °C. […]
A general note: DSF heats the sample and reads unfolding from a dye or from intrinsic fluorescence.

Consider `CC12CCC3CC1CCC21C(=Nc2ccc(N4CCNCC4)cc21)O3` (stereo not shown) [Compound 22], for which the “Activity against the panel of STPs (in words)” value is “lost almost all activity”.
